Results from patent US8609836B2, “4-aryl-2-anilino-pyrimidines” (Janssen Pharmaceutica NV, priority 2008, dated 2013).

How the values were obtained:
AuroraB (h) = AuroraB (h) (Homo sapiens, UniProt Q96GD4); test: Aurora-B human kinase inhibition, SPA; type: biochemical; details: read-out: AuroraB pIC50 (converted)
Summary of the method: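 AuroraB (0.5 μg/ml) phosphorylates 3 μM biotin-peptide using 0.5 μM ATP spiked with 33P-ATP in Hepes pH 7.5 with 3 mM MgCl2 and MnCl2, for 60 min at room temperature. EDTA stop solution carries streptavidin scintillant beads, and the captured radiolabel is imaged.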

CDK1/CyclinB (h) = CDK1/CyclinB (h) (Homo sapiens, UniProt P06493); test: CDK1/CyclinB human kinase inhibition, Invitrogen's FRET assay (Z'lyte); type: biochemical; details: read-out: CDK1 pIC50 (converted)
Chain of CDK1/CyclinB (h) (P06493 whole entry): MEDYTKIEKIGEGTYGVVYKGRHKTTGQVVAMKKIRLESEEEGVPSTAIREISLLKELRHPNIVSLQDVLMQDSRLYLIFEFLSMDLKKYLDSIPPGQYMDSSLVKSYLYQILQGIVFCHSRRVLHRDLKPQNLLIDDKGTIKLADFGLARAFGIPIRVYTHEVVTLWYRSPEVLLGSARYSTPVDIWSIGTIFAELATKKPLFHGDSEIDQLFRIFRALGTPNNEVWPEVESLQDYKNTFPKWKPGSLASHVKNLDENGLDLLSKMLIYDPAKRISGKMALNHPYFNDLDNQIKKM
Chain of CDK1/CyclinB (h) (P14635 whole entry partner): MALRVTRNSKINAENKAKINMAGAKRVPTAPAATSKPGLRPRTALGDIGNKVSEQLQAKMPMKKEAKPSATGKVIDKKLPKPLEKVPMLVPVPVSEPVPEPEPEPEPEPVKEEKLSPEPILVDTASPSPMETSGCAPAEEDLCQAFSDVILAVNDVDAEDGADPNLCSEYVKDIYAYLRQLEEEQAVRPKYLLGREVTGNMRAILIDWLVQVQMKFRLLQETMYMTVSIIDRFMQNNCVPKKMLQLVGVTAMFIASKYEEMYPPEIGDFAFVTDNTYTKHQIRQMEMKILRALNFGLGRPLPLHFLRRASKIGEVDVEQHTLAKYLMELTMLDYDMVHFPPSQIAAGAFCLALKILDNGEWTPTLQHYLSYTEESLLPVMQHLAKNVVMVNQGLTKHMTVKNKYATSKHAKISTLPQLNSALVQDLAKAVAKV
Summary of the method: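 Read-out is the 460 nm/538 nm emission ratio (390 nm excitation) after a 60 min protease development step. Before that, 10 μM ATP and 2 μM Z'lyte Ser/Thr peptide 12 react 60 min at room temperature with 0.2 μg/ml human CDK1/CyclinB in Hepes pH 7.5 containing MgCl2, EGTA and Brij-35.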

CDK4/CyclinD1 (h) = CDK4/CyclinD1 (h) (Homo sapiens, UniProt P11802); test: CDK4/CyclinD1 human kinase inhibition, SPA with GST-pRb substrate; type: biochemical; details: read-out: CDK4 pIC50 (converted)
Chain of CDK4/CyclinD1 (h) (P11802 whole entry): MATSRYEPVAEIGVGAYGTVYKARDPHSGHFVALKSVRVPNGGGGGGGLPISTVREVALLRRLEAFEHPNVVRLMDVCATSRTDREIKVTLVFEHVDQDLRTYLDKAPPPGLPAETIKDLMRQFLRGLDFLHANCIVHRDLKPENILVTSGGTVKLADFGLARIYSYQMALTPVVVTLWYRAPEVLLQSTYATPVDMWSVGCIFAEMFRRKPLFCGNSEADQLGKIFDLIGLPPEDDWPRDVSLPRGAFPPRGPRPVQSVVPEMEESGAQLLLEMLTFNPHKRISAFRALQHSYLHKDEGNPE
Chain of CDK4/CyclinD1 (h) (P24385 whole entry partner): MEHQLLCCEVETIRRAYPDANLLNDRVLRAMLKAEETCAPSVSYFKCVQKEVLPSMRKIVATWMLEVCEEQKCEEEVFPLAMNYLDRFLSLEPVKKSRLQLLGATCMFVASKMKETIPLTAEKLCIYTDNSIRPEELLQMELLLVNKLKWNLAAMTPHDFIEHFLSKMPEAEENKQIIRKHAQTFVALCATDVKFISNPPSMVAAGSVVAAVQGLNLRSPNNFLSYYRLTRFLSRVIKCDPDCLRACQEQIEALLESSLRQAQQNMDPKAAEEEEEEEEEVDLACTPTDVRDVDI
Description: The in vitro inhibition of a panel of kinases was assessed using either the scintillation proximity assay (SPA) as described by Cook, N. D. et al., Advances in Experimental Medicine and Biology (1991), 36; p. 525-528.
In the SPA technology the activity of the kinase of interest is measured using an appropriate biotinylated substrate that is incubated with the aforementioned kinase protein in the presence of (^33P) radiolabeled ATP. (^33P) Phosphorylation of the substrate is subsequently measured through binding of the phosphorylated substrate to streptavidine coated beads that are based on the scintillant poly(vinyl toluene) (PVT-Beads). The scintillation intensity is detected by imaging on Leadseeker.
All kinases are pre-diluted to a 10× working concentration prior to addition into the assay. The composition of the dilution buffer for each kinase is detailed below.
In a final reaction volume of 30 μl, CDK4/CyclinD1 (h) (2.5 μg/ml) is incubated with 50 mM Hepes pH 7.5, 8 mM NaF, 20 mM MgCl2, 1 mM DTT, 40 μg/ml of substrate GST-pRb, 2 nM [γ-^33P-ATP] (6.0 μCi/ml). After incubation of 60 minutes at room temperature, the reaction is stopped by addition of 40 μL of stop solution containing 8.7 mM EDTA, 0.17% Triton X-100, 25 mg/ml Glutathion SPA Beads (GE-healthcare). The plate is centrifuged and read for Scintillation topcount analyzer.

PLK4 (h) = PLK4 (h) (Homo sapiens, UniProt O00444); test: PLK-4 human kinase inhibition, scintillation proximity assay (SPA); type: biochemical; details: read-out: PLK4 pIC50 (converted)
Chain of PLK4 (h) (O00444 whole entry): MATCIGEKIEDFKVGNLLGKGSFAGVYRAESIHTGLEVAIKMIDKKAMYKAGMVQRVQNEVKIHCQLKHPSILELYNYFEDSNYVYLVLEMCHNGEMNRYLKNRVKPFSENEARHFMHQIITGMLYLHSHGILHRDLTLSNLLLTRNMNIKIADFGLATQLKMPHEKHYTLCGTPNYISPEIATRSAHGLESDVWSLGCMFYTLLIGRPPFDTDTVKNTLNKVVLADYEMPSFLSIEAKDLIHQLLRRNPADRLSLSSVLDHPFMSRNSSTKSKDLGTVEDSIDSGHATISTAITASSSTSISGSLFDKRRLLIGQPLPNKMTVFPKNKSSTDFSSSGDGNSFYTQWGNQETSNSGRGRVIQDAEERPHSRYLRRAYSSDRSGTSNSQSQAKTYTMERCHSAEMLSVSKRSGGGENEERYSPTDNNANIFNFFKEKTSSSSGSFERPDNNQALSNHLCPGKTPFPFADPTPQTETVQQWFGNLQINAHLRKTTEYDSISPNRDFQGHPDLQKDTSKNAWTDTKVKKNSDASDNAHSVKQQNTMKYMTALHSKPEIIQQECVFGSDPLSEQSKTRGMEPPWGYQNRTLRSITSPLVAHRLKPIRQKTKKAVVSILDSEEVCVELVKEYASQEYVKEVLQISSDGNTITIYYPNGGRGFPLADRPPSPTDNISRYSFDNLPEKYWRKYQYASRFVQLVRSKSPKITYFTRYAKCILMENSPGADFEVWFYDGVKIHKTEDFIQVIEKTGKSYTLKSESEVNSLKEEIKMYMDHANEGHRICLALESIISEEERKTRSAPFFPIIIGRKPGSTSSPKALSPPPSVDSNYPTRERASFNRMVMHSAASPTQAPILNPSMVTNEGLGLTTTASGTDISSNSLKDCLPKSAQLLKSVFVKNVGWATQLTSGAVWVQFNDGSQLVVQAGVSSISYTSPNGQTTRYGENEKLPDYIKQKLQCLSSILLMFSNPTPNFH

GSK3β (h) = GSK3β (h) (Homo sapiens, UniProt P49841); test: GSK-3β human kinase inhibition, SPA; type: biochemical; details: read-out: GSK3b pIC50 (converted)
Chain of GSK3β (h) (P49841 whole entry): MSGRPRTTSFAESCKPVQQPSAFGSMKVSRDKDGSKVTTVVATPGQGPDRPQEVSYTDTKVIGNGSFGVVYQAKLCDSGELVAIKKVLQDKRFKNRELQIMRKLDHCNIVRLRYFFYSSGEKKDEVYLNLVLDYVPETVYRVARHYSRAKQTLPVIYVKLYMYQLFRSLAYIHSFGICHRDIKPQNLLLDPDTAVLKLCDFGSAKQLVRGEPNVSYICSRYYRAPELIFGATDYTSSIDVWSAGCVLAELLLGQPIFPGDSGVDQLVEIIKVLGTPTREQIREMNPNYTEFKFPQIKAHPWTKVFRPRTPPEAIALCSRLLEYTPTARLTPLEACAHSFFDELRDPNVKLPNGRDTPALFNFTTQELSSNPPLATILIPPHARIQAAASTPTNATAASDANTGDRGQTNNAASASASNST
Summary of the method: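 Radiometric: 33P-labelled peptide captured on streptavidin SPA beads after EDTA stop and imaged on Leadseeker. Reaction ran 1 h at RT, 1 μM cold ATP with 2 nM [γ-33P]ATP, 1 μM biotin-peptide substrate, human GSK3β 1 μg/ml, pH 7.4 Tris buffer.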

H1299 = test: Cellular proliferation assay (Alamar blue), H1299; type: cell-based; details: Homo sapiens, NCI-H1299; 10% FCS; 72 hours with compound; Alamar blue 4 h
Summary of the method: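 This proliferation assay on NCI-H1299 cells used an initial 24-hour compound-free incubation after seeding, followed by 72 hours of compound treatment with 10% FCS serum at 37° C. and 5% (v/v) CO2. Viable cells were quantified by a 4 h Alamar blue incubation and fluorescent plate reading at 544 nm/590 nm, and effects were expressed relative to control cells.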

PLK1 T210D (h) = PLK1 T210D (h) (Homo sapiens, UniProt P53350, T210D); test: PLK1 human kinase inhibition, SPA; type: biochemical; details: read-out: PLK1 pIC50 (converted)
Chain of PLK1 T210D (h) (P53350 whole entry T210D): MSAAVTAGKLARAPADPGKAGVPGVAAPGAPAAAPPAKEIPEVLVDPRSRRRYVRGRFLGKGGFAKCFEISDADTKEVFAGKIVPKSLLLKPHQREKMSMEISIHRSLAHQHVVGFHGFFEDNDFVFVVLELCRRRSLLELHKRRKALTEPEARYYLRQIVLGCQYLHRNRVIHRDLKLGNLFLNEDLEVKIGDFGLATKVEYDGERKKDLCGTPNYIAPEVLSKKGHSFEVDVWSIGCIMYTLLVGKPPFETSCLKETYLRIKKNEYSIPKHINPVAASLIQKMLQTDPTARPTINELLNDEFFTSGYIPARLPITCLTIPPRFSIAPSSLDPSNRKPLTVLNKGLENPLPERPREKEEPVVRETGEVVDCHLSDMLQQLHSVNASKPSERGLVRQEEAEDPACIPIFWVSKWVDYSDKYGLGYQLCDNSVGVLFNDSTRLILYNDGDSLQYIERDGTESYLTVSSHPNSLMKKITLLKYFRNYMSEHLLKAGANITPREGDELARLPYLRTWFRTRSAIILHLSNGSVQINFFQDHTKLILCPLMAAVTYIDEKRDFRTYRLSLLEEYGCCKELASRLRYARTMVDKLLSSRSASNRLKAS
Summary of the method: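 Kinase incubated 40 min at room temperature with 0.1 μM ATP (2 nM [γ-33P]ATP tracer), 2 μM biotinylated peptide, pH 8.0 Hepes buffer with 2 mM MnCl2 and 1 mM DTT; enzyme at 0.125 ng/ml. Stopped with EDTA; 33P-peptide bound to streptavidin scintillant beads and imaged.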

HCT-116 = test: Cellular proliferation assay (Alamar blue), HCT-116; type: cell-based; details: Homo sapiens, 10% FCS, 72 hours with compound, Alamar blue 4 h
Summary of the method: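 Growth inhibition measured after 72 h incubation with compound, following 24 h pre-culture at 37° C, 5% CO2 with 10% FCS. Resazurin-based read-out at 544/590 nm after 4 h (HCT-116), 6 h (U87-MG) or 24 h (A2780, MDA-MB-231); results relative to control.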

Chain of AuroraB (h) (Q96GD4 whole entry): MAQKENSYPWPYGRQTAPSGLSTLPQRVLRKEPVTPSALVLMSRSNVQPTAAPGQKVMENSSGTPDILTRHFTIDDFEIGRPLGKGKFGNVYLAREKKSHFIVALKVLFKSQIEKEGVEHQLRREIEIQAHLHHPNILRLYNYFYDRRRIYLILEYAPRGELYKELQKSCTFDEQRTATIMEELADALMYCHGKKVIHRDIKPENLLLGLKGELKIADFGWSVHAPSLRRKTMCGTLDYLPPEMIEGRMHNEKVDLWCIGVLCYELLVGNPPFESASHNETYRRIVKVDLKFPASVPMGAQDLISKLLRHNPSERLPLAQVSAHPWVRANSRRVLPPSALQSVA

Row | IC50 (AuroraB (h)) | IC50 (CDK1/CyclinB (h)) | IC50 (CDK4/CyclinD1 (h)) | IC50 (PLK4 (h)) | IC50 (GSK3β (h)) | IC50 (H1299) | IC50 (PLK1 T210D (h)) | IC50 (HCT-116) | Compound
1 | 2290 nM | > 10000 nM | 1580 nM | 490 nM | ~10500 nM | 1580 nM | > 10000 nM | 3800 nM | O=C1NCc2ccc(cc2)-c2ccnc(n2)Nc2ccc(N3CCOCC3)c(c2)CN2CCC1CC2 [Compound 12]
2 | 2950 nM | > 10000 nM | 4470 nM | 575 nM | 372 nM | > 10000 nM | > 10000 nM | 8320 nM | O=C1NCc2cc(ccc2N2CCOCC2)Nc2nccc(n2)-c2cccc(c2)CN2CCC[C@@H]12 [Compound 15]
3 | > 10000 nM | 8130 nM | > 10000 nM | 2690 nM | 851 nM | > 10000 nM | > 10000 nM | > 10000 nM | COc1cc2cc(c1OC)CN1CCC[C@H]1C(=O)N(C)CCN(C)c1cc(ccn1)-c1ccnc(n1)N2 [Compound 17]
4 | > 10000 nM | > 10000 nM | > 10000 nM | 646 nM | 389 nM | > 10000 nM | > 10000 nM | 6760 nM | O=C1NCc2cccc(c2)-c2ccnc(n2)Nc2ccc(N3CCOCC3)c(c2)CN[C@H]1Cc1ccccc1 [Compound 18]
5 | > 10000 nM | > 10000 nM | > 10000 nM | 5250 nM | 6030 nM | > 10000 nM | > 10000 nM | > 10000 nM | O=C1CN2CCN(CC2)Cc2cc(ccc2N2CCOCC2)Nc2nccc(n2)-c2cccc(c2)CN1 [Compound 20]
6 | > 10000 nM | > 10000 nM | > 10000 nM | 74.1 nM | 195 nM | > 10000 nM | > 10000 nM | > 10000 nM | COc1cc2cc(c1OC)CN1CCC[C@H]1C(=O)NCc1cccc(c1)-c1ccnc(n1)N2 [Compound 23]
7 | > 10000 nM | > 10000 nM | > 10000 nM | 93.3 nM | 81.3 nM | 3310 nM | > 10000 nM | 3720 nM | CN1CCN(C(=O)c2ccc3cc2CN2CCC[C@H]2C(=O)NCc2cccc(c2)-c2ccnc(n2)N3)CC1 [Compound 25]
8 | > 10000 nM | > 10000 nM | > 10000 nM | 97.7 nM | 67.6 nM | 2450 nM | > 10000 nM | 2190 nM | O=C1NCc2cccc(c2)-c2ccnc(n2)Nc2ccc(C(=O)N3CCOCC3)c(c2)CN2CCC[C@@H]12 [Compound 26]
9 | > 10000 nM | 1910 nM | 1780 nM | 110 nM | 141 nM | 2950 nM | > 10000 nM | 891 nM | O=C1NCc2cccc(c2)-c2ccnc(n2)Nc2ccc(N3CCOCC3)c(c2)CN2C[C@@H](O)C[C@@H]12 [Compound 27]
10 | > 10000 nM | 550 nM | 3310 nM | 178 nM | 186 nM | > 10000 nM | > 10000 nM | 5130 nM | O=C1NCc2cccc(c2)-c2ccnc(n2)Nc2cc(cc(C(=O)N3CCOCC3)c2)CN2CCC[C@@H]12 [Compound 32]
11 | > 10000 nM | 1230 nM | 8710 nM | 186 nM | 525 nM | 6170 nM | > 10000 nM | 5890 nM | CN1CCN(C(=O)c2cc3cc(c2)Nc2nccc(n2)-c2cccc(c2)CNC(=O)[C@@H]2CCCN2C3)CC1 [Compound 34]
12 | > 10000 nM | 288 nM | 1350 nM | 204 nM | 204 nM | > 10000 nM | > 10000 nM | 1320 nM | CN(C)C(=O)c1cc2cc(c1)Nc1nccc(n1)-c1cccc(c1)CNC(=O)[C@@H]1CCCN1C2 [Compound 35]
13 | 4900 nM | 5370 nM | > 10000 nM | 245 nM | 676 nM | > 10000 nM | > 10000 nM | > 10000 nM | O=C(NC1CCOCC1)c1cc2cc(c1)Nc1nccc(n1)-c1cccc(c1)CNC(=O)[C@@H]1CCCN1C2 [Compound 37]
14 | > 10000 nM | 1660 nM | 3470 nM | 263 nM | 186 nM | > 10000 nM | > 10000 nM | 1230 nM | CN1CCC(NC(=O)c2cc3cc(c2)Nc2nccc(n2)-c2cccc(c2)CNC(=O)[C@@H]2CCCN2C3)CC1 [Compound 38]
15 | > 10000 nM | 1450 nM | 1120 nM | 282 nM | 363 nM | > 10000 nM | > 10000 nM | 1230 nM | CN(C)CCNC(=O)c1cc2cc(c1)Nc1nccc(n1)-c1cccc(c1)CNC(=O)[C@@H]1CCCN1C2 [Compound 39]
16 | > 10000 nM | 427 nM | 427 nM | 363 nM | 186 nM | > 10000 nM | > 10000 nM | 1780 nM | O=C1NCc2cc(ccc2N2CCOCC2)Nc2nccc(n2)-c2cccc(c2)CCN2CCC[C@@H]12 [Compound 43]
17 | > 10000 nM | 427 nM | 3630 nM | 407 nM | 166 nM | > 10000 nM | > 10000 nM | 1820 nM | COCCNC(=O)c1cc2cc(c1)Nc1nccc(n1)-c1cccc(c1)CNC(=O)[C@@H]1CCCN1C2 [Compound 44]
18 | > 10000 nM | 70.8 nM | 933 nM | 417 nM | 72.4 nM | 1170 nM | > 10000 nM | 295 nM | O=C1NCc2cccc(c2)-c2ccnc(n2)Nc2cccc(c2)CN2C[C@@H](O)C[C@@H]12 [Compound 45]
19 | > 10000 nM | 2000 nM | 1200 nM | 646 nM | 398 nM | 9550 nM | > 10000 nM | 2450 nM | CN1CCC(NC(=O)c2ccc3cc2CN2CCC[C@H]2C(=O)NCc2cccc(c2)-c2ccnc(n2)N3)CC1 [Compound 47]
20 | > 10000 nM | > 10000 nM | > 10000 nM | 5890 nM | > 10000 nM | > 10000 nM | > 10000 nM | > 10000 nM | O=C1NCc2ccc(cc2)-c2ccnc(n2)Nc2ccc(N3CCOCC3)c(c2)CN2CCC[C@@H]12 [Compound 49]
21 | > 10000 nM | > 10000 nM | > 10000 nM | > 10000 nM | > 10000 nM | > 10000 nM | > 10000 nM | > 10000 nM | O=C1NCc2cccc(c2)-c2ccnc(n2)Nc2cc(ccc2Cl)CN2CCC[C@@H]12 [Compound 51]

Row | Compound | IC50 (AuroraB (h)) | IC50 (CDK1/CyclinB (h)) | IC50 (CDK4/CyclinD1 (h)) | IC50 (PLK4 (h)) | IC50 (GSK3β (h)) | IC50 (H1299) | IC50 (PLK1 T210D (h)) | IC50 (HCT-116)
22 | COc1ccc2cc1CN[C@@H](CO)C(=O)N(C)CCCN(C)c1ccc(cn1)-c1ccnc(n1)N2 [Compound 11] | > 10000 nM | > 10000 nM | > 10000 nM | 933 nM | 2090 nM | > 10000 nM | > 10000 nM | > 10000 nM
